Values joined by “and” are separate entries in the source; they are usually repeats but may differ in a detail not shown here. Identical values can stand only once. Like-named read-outs stand apart in the source and are kept apart here.
Legend:
[1] = Pharmacokinetic analysis of Nec-1f in mice (tissue PK); assay type: in vivo, C57BL/6 mice; conditions: individual mice; for concentration at 0 min / concentration at 5 min / concentration at 15 min / concentration at 120 min / concentration at 240 min / concentration at 360 min / concentration at 480 min / concentration at 60 min / concentration at 1440 min: male, C57BL/6, mouse, intraperitoneal; for concentration at 5 min: sample collection 5 min; for concentration at 15 min: sample collection 15 min; for concentration at 120 min: sample collection 120 min; for concentration at 60 min: sample collection 60 min
[2] = biological target: GR (h) (Homo sapiens, UniProt P04150); experiment: Off-target radioligand binding screen; conditions: read-out: GR (h) (#): inhibition of radioligand binding, Nec-1f 10 µM
[3] = biological target: δ (DOP) (h) (Homo sapiens, UniProt P41143); experiment: Off-target radioligand binding screen; conditions: read-out: δ (DOP) (h) (#): inhibition of radioligand binding
[4] = system: C57BL/6N mice; experiment: Acute oxalate nephropathy (CaOx-induced AKI); assay type: in vivo, mouse
Experimental: C57BL/6N mice were procured from Charles River Laboratories (Sulzfeld, Germany) and co-housed in groups of four in filter top cages with unlimited access to food and water. Cages, nestlets, food, and water were sterilized by autoclaving before use. Mice received a single intraperitoneal (i.p.) injection of 100 mg/kg sodium oxalate (Santa Cruz Biotechnology) and 3% sodium oxalate in drinking water and kidneys were harvested after 24 h. […] Blood and kidneys were collected at sacrifice by cervical dislocation. The middle section of each kidney was fixed for 24 h in formalin to be embedded in paraffin for histological analysis. Intrarenal crystal precipitations were quantified by Pizzolato staining. The experimental procedure was approved by the Regierung von Oberbayern, München, Germany (ROB-55.2-2532.Vet_02-18-127).
The tubular injury was scored by detecting the percentage of necrotic structures, dilated tubules, casts and cellular infiltrates per HPF. To do so a grid with a raster size of 2.5% of the total image area was imposed on top of each image and the number of squares covering either of the histopathological features was counted individually or as a composite (summary score). Pizzolato’s staining visualized calcium oxalate crystals and crystal deposit formation in the kidney was evaluated the following: no deposits = 0 point; crystals in papillary tip = 1 point; crystals in cortical medullary junction = 2 points; crystals in cortex = 3 points.
A TUNEL kit (Cell death detection kit, Roche) was used to quantify the number of cells with DNA strand breaks per HPF. The green fluorescent area was measured and the number of stained cells per slide was counted.

[5] = biological target: dopamine transporter(h) (Homo sapiens, UniProt Q01959); experiment: Off-target radioligand binding screen; conditions: read-out: dopamine transporter(h) ($): inhibition of radioligand binding
[6] = biological target: indoleamine 2,3-dioxygenase (IDO) (Homo sapiens, UniProt P14902); experiment: IDO assay (formation of N-formyl-kynurenine from L-tryptophan); conditions: read-out: IDO (h): inhibition
[7] = biological target: V1a(h) (Homo sapiens, UniProt P37288); experiment: Off-target radioligand binding screen; conditions: read-out: V1a(h) (#): inhibition of radioligand binding
[8] = liver, liver, read-out: concentration in liver
[9] = lung, lung, read-out: concentration in lung
[10] = pancreas, pancreas, read-out: concentration in pancreas
[11] = plasma, 2 mg/ml, plasma, read-out: concentration in plasma
[12] = whole blood, 2 mg/ml, blood, read-out: concentration in blood
[13] = 24 h after CaOx, 1.65 mg/kg Nec-1f, individual animals, 1.65 mg/kg

Sequence of GR (h) (P04150 whole entry): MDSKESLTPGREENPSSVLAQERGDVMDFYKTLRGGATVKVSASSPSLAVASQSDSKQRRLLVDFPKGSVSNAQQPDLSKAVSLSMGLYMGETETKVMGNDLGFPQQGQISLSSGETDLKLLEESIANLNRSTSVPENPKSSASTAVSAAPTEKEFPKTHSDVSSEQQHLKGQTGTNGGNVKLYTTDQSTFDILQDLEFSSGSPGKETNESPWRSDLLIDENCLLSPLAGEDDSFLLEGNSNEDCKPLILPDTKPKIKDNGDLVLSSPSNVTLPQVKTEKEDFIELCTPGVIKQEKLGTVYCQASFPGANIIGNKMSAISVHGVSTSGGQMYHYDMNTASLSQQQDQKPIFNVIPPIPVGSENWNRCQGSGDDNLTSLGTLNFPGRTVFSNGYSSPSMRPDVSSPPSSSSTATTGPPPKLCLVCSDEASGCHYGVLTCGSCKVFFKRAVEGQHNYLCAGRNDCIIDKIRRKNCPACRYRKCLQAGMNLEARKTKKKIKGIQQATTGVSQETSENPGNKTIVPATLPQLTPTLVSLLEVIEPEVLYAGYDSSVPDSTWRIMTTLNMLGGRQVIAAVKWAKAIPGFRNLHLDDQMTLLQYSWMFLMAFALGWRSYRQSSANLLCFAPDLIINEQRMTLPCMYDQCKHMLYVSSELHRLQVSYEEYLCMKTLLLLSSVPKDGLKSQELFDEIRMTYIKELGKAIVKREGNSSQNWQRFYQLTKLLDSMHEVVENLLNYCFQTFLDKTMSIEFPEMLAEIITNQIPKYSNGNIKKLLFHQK
Sequence of V1a(h) (P37288 whole entry): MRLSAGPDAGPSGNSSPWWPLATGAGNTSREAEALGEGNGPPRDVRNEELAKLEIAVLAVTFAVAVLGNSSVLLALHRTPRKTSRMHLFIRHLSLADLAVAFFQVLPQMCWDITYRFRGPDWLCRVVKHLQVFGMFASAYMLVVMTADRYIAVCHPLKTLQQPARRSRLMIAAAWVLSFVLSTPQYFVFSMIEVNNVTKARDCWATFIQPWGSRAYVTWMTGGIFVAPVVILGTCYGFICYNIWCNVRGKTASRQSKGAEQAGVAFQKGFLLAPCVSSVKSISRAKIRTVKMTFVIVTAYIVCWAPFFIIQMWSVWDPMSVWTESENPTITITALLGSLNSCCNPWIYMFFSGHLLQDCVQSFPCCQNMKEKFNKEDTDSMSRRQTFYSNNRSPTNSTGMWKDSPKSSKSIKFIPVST
Sequence of indoleamine 2,3-dioxygenase (IDO) (P14902 whole entry): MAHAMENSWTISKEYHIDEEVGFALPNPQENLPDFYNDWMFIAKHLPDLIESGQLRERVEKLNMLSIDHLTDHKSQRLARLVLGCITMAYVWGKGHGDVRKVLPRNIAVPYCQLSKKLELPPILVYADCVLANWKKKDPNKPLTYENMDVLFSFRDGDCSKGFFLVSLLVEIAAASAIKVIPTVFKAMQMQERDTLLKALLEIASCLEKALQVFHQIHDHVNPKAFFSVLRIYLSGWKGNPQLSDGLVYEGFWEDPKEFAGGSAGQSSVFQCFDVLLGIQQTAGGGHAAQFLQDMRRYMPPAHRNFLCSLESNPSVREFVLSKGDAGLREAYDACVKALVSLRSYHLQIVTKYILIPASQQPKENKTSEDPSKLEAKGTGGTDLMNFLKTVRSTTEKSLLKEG
Sequence of δ (DOP) (h) (P41143 whole entry): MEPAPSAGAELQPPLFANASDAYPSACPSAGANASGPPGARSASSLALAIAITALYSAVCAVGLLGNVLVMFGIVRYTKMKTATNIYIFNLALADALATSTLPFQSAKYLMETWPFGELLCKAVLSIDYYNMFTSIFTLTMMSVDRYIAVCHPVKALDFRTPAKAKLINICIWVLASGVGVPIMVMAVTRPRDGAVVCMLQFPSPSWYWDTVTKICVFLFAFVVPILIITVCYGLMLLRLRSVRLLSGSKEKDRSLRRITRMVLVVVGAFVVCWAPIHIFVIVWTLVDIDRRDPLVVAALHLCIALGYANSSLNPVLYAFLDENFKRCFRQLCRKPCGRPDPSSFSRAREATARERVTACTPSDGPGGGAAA
Sequence of dopamine transporter(h) (Q01959 whole entry): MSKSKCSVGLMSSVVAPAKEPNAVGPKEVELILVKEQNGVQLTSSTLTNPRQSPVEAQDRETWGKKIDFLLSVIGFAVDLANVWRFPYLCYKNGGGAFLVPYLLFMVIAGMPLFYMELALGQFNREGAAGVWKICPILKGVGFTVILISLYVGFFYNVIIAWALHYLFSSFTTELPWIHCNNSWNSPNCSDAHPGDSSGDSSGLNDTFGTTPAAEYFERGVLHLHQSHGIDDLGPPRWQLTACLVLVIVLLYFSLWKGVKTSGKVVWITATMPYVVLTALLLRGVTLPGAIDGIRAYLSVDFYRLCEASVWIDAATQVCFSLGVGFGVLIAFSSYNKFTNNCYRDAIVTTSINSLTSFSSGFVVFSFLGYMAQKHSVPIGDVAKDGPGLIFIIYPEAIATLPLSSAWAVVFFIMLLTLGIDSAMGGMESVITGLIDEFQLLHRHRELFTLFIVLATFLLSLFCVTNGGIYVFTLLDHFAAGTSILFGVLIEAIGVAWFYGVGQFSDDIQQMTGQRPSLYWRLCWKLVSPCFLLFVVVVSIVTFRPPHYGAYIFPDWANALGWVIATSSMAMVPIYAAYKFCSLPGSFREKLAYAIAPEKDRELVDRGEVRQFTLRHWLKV

Q: Which concentration at 0 min ([1]; liver, liver, sample collection 0 min, read-out: concentration in liver) does the source give for CN1C(=O)C(Cc2c[nH]c3c(Cl)cccc23)NC1=S (centres unmarked) [Nec-1f] here?
A: 0 ng/mL

Q: And the concentration at 5 min [1, 8]?
A: 202 ng/mL

Q: What about the concentration at 15 min [1, 8] of the same compound?
A: 334 ng/mL

Q: What about the concentration at 120 min [1, 8] of the same compound?
A: 0 ng/mL

Q: What about the concentration at 240 min ([1]; lung, 2 mg/kg, lung, sample collection 240 min, read-out: concentration in lung) of the same compound?
A: 0 ng/mL

Q: What about the concentration at 360 min ([1]; lung, 2 mg/kg, lung, sample collection 360 min, read-out: concentration in lung) of the same compound?
A: 0 ng/mL

Q: What about the concentration at 480 min ([1]; lung, 2 mg/kg, lung, sample collection 480 min, read-out: concentration in lung) of the same compound?
A: 0 ng/mL

Q: And the concentration at 0 min ([1]; lung, lung, sample collection 0 min, read-out: concentration in lung)?
A: 0 ng/mL

Q: And the concentration at 5 min [1, 9]?
A: 573 ng/mL

Q: What about the concentration at 60 min [1, 9] of the same compound?
A: 321 ng/mL

Q: What about the concentration at 120 min [1, 9] of the same compound?
A: 50 ng/mL

Q: What about the concentration at 1440 min ([1]; lung, lung, sample collection 1440 min, read-out: concentration in lung) of the same compound?
A: 0 ng/mL

Q: And the concentration at 0 min ([1]; pancreas, pancreas, sample collection 0 min, read-out: concentration in pancreas)?
A: 0 ng/mL

Q: What about the concentration at 5 min [1, 10] of the same compound?
A: 8950 ng/mL

Q: What about the concentration at 15 min [1, 10] of the same compound?
A: 35200 ng/mL

Q: What about the concentration at 120 min [1, 10] of the same compound?
A: 490 ng/mL

Q: And the concentration at 1440 min ([1]; pancreas, pancreas, sample collection 1440 min, read-out: concentration in pancreas)?
A: 0 ng/mL

Q: And the concentration at 240 min ([1]; plasma, 2 mg/kg, plasma, sample collection 240 min, read-out: concentration in plasma)?
A: 0 ng/mL

Q: What about the concentration at 360 min ([1]; plasma, 2 mg/kg, plasma, sample collection 360 min, read-out: concentration in plasma) of the same compound?
A: 0 ng/mL

Q: What about the concentration at 480 min ([1]; plasma, 2 mg/kg, plasma, sample collection 480 min, read-out: concentration in plasma) of the same compound?
A: 0 ng/mL

Q: And the concentration at 1440 min ([1]; plasma, 2 mg/kg, plasma, sample collection 1440 min, read-out: concentration in plasma)?
A: 0 ng/mL

Q: And the concentration at 0 min ([1]; plasma, 2 mg/ml, plasma, sample collection 0 min, read-out: concentration in plasma)?
A: 0 ng/mL

Q: And the concentration at 5 min [1, 11]?
A: 0 ng/mL

Q: What about the concentration at 60 min [1, 11] of the same compound?
A: 19 ng/mL

Q: What about the concentration at 120 min [1, 11] of the same compound?
A: 0 ng/mL

Q: What about the concentration at 240 min ([1]; whole blood, 2 mg/kg, blood, sample collection 240 min, read-out: concentration in blood) of the same compound?
A: 0 ng/mL

Q: And the concentration at 360 min ([1]; whole blood, 2 mg/kg, blood, sample collection 360 min, read-out: concentration in blood)?
A: 0 ng/mL

Q: What about the concentration at 480 min ([1]; whole blood, 2 mg/kg, blood, sample collection 480 min, read-out: concentration in blood) of the same compound?
A: 0 ng/mL

Q: What about the concentration at 0 min ([1]; whole blood, 2 mg/ml, blood, sample collection 0 min, read-out: concentration in blood) of the same compound?
A: 0 ng/mL

Q: What about the concentration at 5 min [1, 12] of the same compound?
A: 0 ng/mL

Q: What about the concentration at 60 min [1, 12] of the same compound?
A: 0 ng/mL

Q: And the concentration at 120 min [1, 12]?
A: 0 ng/mL

Q: And the concentration at 1440 min ([1]; whole blood, 2 mg/ml, blood, sample collection 1440 min, read-out: concentration in blood)?
A: 0 ng/mL

Q: And the concentration in pancreas ([1]; pancreas, sample collection 240 min)?
A: 476 ng/mL and 7372 ng/mL and 2018 ng/mL

Q: What about the concentration in pancreas ([1]; pancreas, sample collection 360 min) of the same compound?
A: 0 ng/mL and 1720 ng/mL and 911 ng/mL

Q: What about the concentration in pancreas ([1]; pancreas, sample collection 480 min) of the same compound?
A: 0 ng/mL and 176 ng/mL and 625 ng/mL

Q: What about the concentration in pancreas ([1]; pancreas, sample collection 1440 min) of the same compound?
A: 0 ng/mL

Q: And the concentration in plasma ([1]; plasma, sample collection 0 min)?
A: 0 ng/mL

Q: And the concentration in plasma ([1]; plasma, sample collection 240 min)?
A: 0 ng/mL

Q: What about the concentration in plasma ([1]; plasma, sample collection 360 min) of the same compound?
A: 0 ng/mL

Q: And the concentration in plasma ([1]; plasma, sample collection 480 min)?
A: 0 ng/mL

Q: What about the concentration in plasma ([1]; plasma, sample collection 1440 min) of the same compound?
A: 0 ng/mL

Q: What about the inhibition at 10 µM [2] of the same compound?
A: ≥ 50%

Q: And the inhibition at 10 µM [3]?
A: 2.8%

Q: And the “CaOx crystal deposition vs vehicle” value ([4]; 1.65 mg/kg body weight)?
A: comparable in both groups

Q: And the “Tubular injury vs vehicle” value ([4]; 1.65 mg/kg body weight)?
A: reduced tubular injury

Q: And the Serum creatinine [4, 13]?
A: 75 µmol/L and 84 µmol/L and 73 µmol/L and 71 µmol/L and 67 µmol/L and 78 µmol/L and 89 µmol/L and 69 µmol/L

Q: And the Serum urea [4, 13]?
A: 70.6 mmol/L and 52 mmol/L and 57.6 mmol/L and 47.8 mmol/L and 51.8 mmol/L and 64.8 mmol/L and 59.8 mmol/L

Q: And the “Number of TUNEL-positive cells vs vehicle” value ([4]; CaOx)?
A: significantly decreased

Q: And the “Serum creatinine vs vehicle” value ([4]; CaOx, 1.65 mg/kg)?
A: lower concentrations

Q: What about the “Serum urea vs vehicle” value ([4]; CaOx, 1.65 mg/kg) of the same compound?
A: lower concentrations

Q: And the TUNEL ([4]; kidneys 24 h after onset of CaOx treatment, Nec-1f, individual animals)?
A: 12.5 positive cells per HPF and 23.5 positive cells per HPF and 14 positive cells per HPF and 17 positive cells per HPF and 9.5 positive cells per HPF and 16 positive cells per HPF and 15 positive cells per HPF

Q: And the “Tubular injury (PAS)” value ([4]; sodium oxalate, 1.65 mg/kg Nec-1f, individual animals, 1.65 mg/kg)?
A: 5.4 % area per HPF and 19.2 % area per HPF and 9 % area per HPF and 17.2 % area per HPF and 7.8 % area per HPF and 11.7 % area per HPF and 12.7 % area per HPF

Q: What about the inhibition at 10 µM [5] of the same compound?
A: 34.3%

Q: What about the inhibition at 10 µM [6] of the same compound?
A: 2%

Q: And the inhibition at 10 µM [7]?
A: 29.3%
